Measured values: US12065421B2, “Inhibitors of oplophorus luciferase-derived bioluminescent complexes” (priority 2018, dated 2024)

What follows are compounds tested against T1, NanoBiT® HiBiT non-luminescent peptide and LgBiT non-luminescent polypeptide (HiBiT/LgBiT bioluminescent complex) (Oplophorus gracilirostris, UniProt Q9GV45, A31E/A60N/A81I/C191F/D135N/E192K/F58L/F95D/G184S/G42A/G62A/G78A/G94A/G98A/H120P/I103V/I117V/I134L/K70R/L176M/L195S/L54V/L73R/L99Q/M102E/N171T/N193K/P142E/Q151K/Q38E/Q45L/T186S/V71I/Y165I) (assay: biochemical).
T1 construct: fused on or other part: N-terminal Met-Val on LgBiT in place of the signal peptide (residues 1-27); The chain is split between residues 184 and 185 into LgBiT and the 11-residue HiBiT peptide (residues 185-195); C-terminal A196 is absent
T1 sequence (Q9GV45 other isoform, or with tags, fused parts or gaps with the stated changes): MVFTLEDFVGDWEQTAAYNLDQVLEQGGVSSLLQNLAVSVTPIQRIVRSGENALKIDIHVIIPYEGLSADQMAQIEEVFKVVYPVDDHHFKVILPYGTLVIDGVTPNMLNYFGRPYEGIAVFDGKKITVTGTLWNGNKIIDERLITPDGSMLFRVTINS

Row | Structure (SMILES) | IC50 [nM]
1 | Cc1ccc(NC(=O)c2ccccc2NS(=O)(=O)c2cccc(C#CCO)c2)cc1 [JRW-1272, 2-((3-(3-hydroxyprop-1-yn-1-yl)phenyl)sulfonamido)-N-(p-tolyl)benzamide] | 700
2 | Cc1ccc(S(=O)(=O)Nc2ccccc2C(=O)Nc2cc3ccccc3s2)cc1 [HL-0005, N-(benzo[b]thiophen-2-yl)-2-((4-methylphenyl)sulfonamido)benzamide] | 3.9
3 | CCCCCCc1ccc(NC(=O)c2ccccc2NS(=O)(=O)c2ccc(C)cc2)cc1 [JRW-1090, N-(4-hexylphenyl)-2-((4-methylphenyl)sulfonamido)benzamide] | 1100
4 | CCCCOc1cccc(S(=O)(=O)Nc2ccccc2C(=O)Nc2ccc(C)cc2)c1 [JRW-1266, 2-((3-butoxyphenyl)sulfonamido)-N-(p-tolyl)benzamide] | 1500
5 | Cc1ccc(NC(=O)c2ccccc2NS(=O)(=O)c2ccc(C(F)(F)F)cc2)cc1 [JRW-1284, N-(p-tolyl)-2-((4-(trifluoromethyl)phenyl)sulfonamido)benzamide] | 710
6 | COc1ccc(NS(=O)(=O)c2ccc(C)cc2)c(C(=O)Nc2ccc(C)cc2)c1 [JRW-1166, 5-methoxy-2-((4-methylphenyl)sulfonamido)-N-(p-tolyl)benzamide] | 130
7 | Cc1ccc(S(=O)(=O)Nc2ccccc2C(=O)NC2CCCCC2)cc1 [HL-0006, N-cyclohexyl-2-((4-methylphenyl)sulfonamido)benzamide] | 210
8 | CCCCc1ccc(NC(=O)c2ccccc2NS(=O)(=O)c2ccc(C)cc2)cc1 [JRW-1076, N-(4-butylphenyl)-2-((4-methylphenyl)sulfonamido)benzamide] | 26
9 | Cc1ccc(S(=O)(=O)Nc2ccccc2C(=O)Nc2ccc3c(c2)CCCC3)cc1 [HL-0008, 2-((4-methylphenyl)sulfonamido)-N-(5,6,7,8-tetrahydronaphthalen-2-yl)benzamide] | 24
10 | Cc1ccc(NC(=O)c2cc(O)ccc2NS(=O)(=O)c2ccc(C)cc2)cc1 [JRW-1232, 5-hydroxy-2-((4-methylphenyl)sulfonamido)-N-(p-tolyl)benzamide] | 1000
11 | Cc1ccc(S(=O)(=O)Nc2ccccc2C(=O)N[C@H]2CC[C@H](C(=O)O)CC2)cc1 [HL-0012, trans-4-(2-((4-methylphenyl)sulfonamido)benzamido)cyclohexane-1-carboxylic acid] | 490
12 | COc1ccc(C(=O)Nc2ccc(C)cc2)c(NS(=O)(=O)c2ccc(C)cc2)c1 [JRW-1202, 4-methoxy-2-((4-methylphenyl)sulfonamido)-N-(p-tolyl)benzamide] | 180
13 | CCCCC#Cc1cccc(S(=O)(=O)Nc2ccccc2C(=O)Nc2ccc(C)cc2)c1 [JRW-1270, 2-((3-(hex-1-yn-1-yl)phenyl)sulfonamido)-N-(p-tolyl)benzamide] | 1200
14 | COc1cccc(S(=O)(=O)Nc2ccccc2C(=O)Nc2cc3ccccc3s2)c1 [JRW-1230, N-(benzo[b]thiophen-2-yl)-2-((3-methoxyphenyl)sulfonamido)benzamide] | 7.8
15 | Cc1ccc(S(=O)(=O)Nc2ccccc2C(=O)Nc2ccc3ccccc3c2)cc1 [HL-0007, 2-((4-methylphenyl)sulfonamido)-N-(naphthalen-2-yl)benzamide] | 14
16 | Cc1ccc(NC(=O)c2ccccc2NS(=O)(=O)c2ccc(Br)cc2)cc1 [JRW-1287, 2-((4-bromophenyl)sulfonamido)-N-(p-tolyl)benzamide] | 150
17 | Cc1ccc(NC(=O)c2ccccc2NS(=O)(=O)c2cccc(O)c2)cc1 [JRW-1236, 2-((3-hydroxyphenyl)sulfonamido)-N-(p-tolyl)benzamide] | 33
18 | CCCCc1ccc(S(=O)(=O)Nc2ccccc2C(=O)Nc2cc3ccccc3s2)cc1 [JRW-1114, N-(benzo[b]thiophen-2-yl)-2-((4-butylphenyl)sulfonamido)benzamide] | 170
19 | COc1ccc(C(=O)Nc2cc3ccccc3s2)c(NS(=O)(=O)c2ccc(C)cc2)c1 [JRW-1203, N-(benzo[b]thiophen-2-yl)-4-methoxy-2-((4-methylphenyl)sulfonamido)benzamide] | 100
20 | Cc1ccc(NC(=O)c2ccccc2NS(=O)(=O)c2cccc(OC(F)(F)F)c2)cc1 [JRW-1328, N-(p-tolyl)-2-((3-(trifluoromethoxy)phenyl)sulfonamido)benzamide] | 1100
21 | Cc1ccc(S(=O)(=O)Nc2ccccc2C(=O)Nc2ccc(CCCCO)cc2)cc1 [JRW-1150, N-(4-(4-hydroxybutyl)phenyl)-2-((4-methylphenyl)sulfonamido)benzamide] | 19000
22 | Cc1ccc(NC(=O)c2ccccc2NS(=O)(=O)c2cccc(-c3ccccc3)c2)cc1 [JRW-1248, 2-([1,1′-biphenyl]-3-sulfonamido)-N-(p-tolyl)benzamide] | 280

Row | Structure (SMILES) | IC50 [nM]
23 | COC(=O)[C@H]1CC[C@H](NC(=O)c2ccccc2NS(=O)(=O)c2ccc(C)cc2)CC1 [HL-0009, methyl trans-4-(2-((4-methylphenyl)sulfonamido)benzamido)cyclohexane-1-carboxylate] | 16000
24 | Cc1ccc(S(=O)(=O)Nc2cc(F)ccc2C(=O)Nc2cc3ccccc3s2)cc1 [JRW-1346, N-(benzo[b]thiophen-2-yl)-4-fluoro-2-((4-methylphenyl)sulfonamido)benzamide] | 14
25 | Cc1ccc(S(=O)(=O)Nc2ccccc2C(=O)Nc2cccc(C(C)C)c2)cc1 [HL-0025, N-(3-isopropylphenyl)-2-((4-methylphenyl)sulfonamido)benzamide] | 85
26 | O=C(Nc1cc2ccccc2s1)c1ccccc1NS(=O)(=O)c1ccc2c(c1)CCCC2 [JRW-1077, N-(benzo[b]thiophen-2-yl)-2-((5,6,7,8-tetrahydronaphthalene)-2-sulfonamido)benzamide] | 89
27 | Cc1ccc(S(=O)(=O)Nc2ccccc2C(=O)Nc2cccc(-c3ccccc3)c2)cc1 [JRW-1297, N-([1,1′-biphenyl]-3-yl)-2-((4-methylphenyl)sulfonamido)benzamide] | 100
28 | Cc1ccc(S(=O)(=O)Nc2cc3ccccc3cc2C(=O)Nc2cc3ccccc3s2)cc1 [HL-0057, N-(benzo[b]thiophen-2-yl)-3-((4-methylphenyl)sulfonamido)-2-naphthamide] | 55
29 | Cc1ccc(NC(=O)c2ccccc2NS(=O)(=O)c2cccc(CCCO)c2)cc1 [JRW-1275, 2-((3-(3-hydroxypropyl)phenyl)sulfonamido)-N-(p-tolyl)benzamide] | 340
30 | Cc1ccc(NC(=O)c2ccccc2NS(=O)(=O)c2ccc(C)cc2)cc1 [HL-0019, 2-((4-methylphenyl)sulfonamido)-N-(p-tolyl)benzamide] | 29
31 | Cc1ccc(S(=O)(=O)Nc2ccc(F)cc2C(=O)Nc2cc3ccccc3s2)cc1 [JRW-1347, N-(benzo[b]thiophen-2-yl)-5-fluoro-2-((4-methylphenyl)sulfonamido)benzamide] | 0.8
32 | Cc1ccc(NC(=O)c2ccccc2NS(=O)(=O)c2cccc(CO)c2)cc1 [JRW-1261, 2-((3-(hydroxymethyl)phenyl)sulfonamido)-N-(p-tolyl)benzamide] | 170
33 | O=Cc1ccc(S(=O)(=O)Nc2ccccc2C(=O)Nc2cc3ccccc3s2)cc1 [HL-0038, N-(benzo[b]thiophen-2-yl)-2-((4-formylphenyl)sulfonamido)benzamide] | 44
34 | Cc1ccc(S(=O)(=O)Nc2ccccc2C(=O)Nc2ccccc2Br)cc1 [JRW-1282, N-(2-bromophenyl)-2-((4-methylphenyl)sulfonamido)benzamide] | 200
35 | Cc1ccc(S(=O)(=O)Nc2ccccc2C(=O)Nc2sc3c(c2C#N)CCC3)cc1 [JRW-0998, N-(3-cyano-5,6-dihydro-4H-cyclopenta[b]thiophen-2-yl)-2-((4-methylphenyl)sulfonamido)benzamide] | 43
36 | Cc1ccc(S(=O)(=O)Nc2ccccc2C(=O)Nc2cccc(Br)c2)cc1 [JRW-1283, N-(3-bromophenyl)-2-((4-methylphenyl)sulfonamido)benzamide] | 46
37 | CCOC(=O)Cc1ccc(NC(=O)c2ccccc2NS(=O)(=O)c2ccc(C)cc2)cc1 [HL-0023, ethyl 2-(4-(2-((4-methylphenyl)sulfonamido)benzamido)phenyl)acetate] | 580
38 | Cc1ccc(S(=O)(=O)Nc2ccc(C(F)(F)F)cc2C(=O)Nc2cc3ccccc3s2)cc1 [JRW-1388, N-(benzo[b]thiophen-2-yl)-2-((4-methylphenyl)sulfonamido)-5-(trifluoromethyl)benzamide] | 0.58
39 | CCN(c1ccccc1C(=O)Nc1ccc(OC)cc1)S(=O)(=O)c1ccc(C)cc1 [JRW-1325, 2-((N-ethyl-4-methylphenyl)sulfonamido)-N-(4-methoxyphenyl)benzamide] | 1300
40 | Cc1ccc(S(=O)(=O)Nc2ccc(C)cc2C(=O)Nc2cc3ccccc3s2)cc1 [HL-0061, N-(benzo[b]thiophen-2-yl)-5-methyl-2-((4-methylphenyl)sulfonamido)benzamide] | 29
41 | Cc1ccc(S(=O)(=O)Nc2ccccc2C(=O)Nc2ccc(-c3ccccc3)cc2)cc1 [JRW-1288, N-([1,1′-biphenyl]-4-yl)-2-((4-methylphenyl)sulfonamido)benzamide] | 110
42 | CCCCNc1cccc(S(=O)(=O)Nc2ccccc2C(=O)Nc2ccc(C)cc2)c1 [JRW-1269, 2-((3-(butylamino)phenyl)sulfonamido)-N-(p-tolyl)benzamide] | 1100
43 | CCCc1ccccc1NC(=O)c1ccccc1NS(=O)(=O)c1ccc(C)cc1 [HL-0059, 2-((4-methylphenyl)sulfonamido)-N-(2-propylphenyl)benzamide] | 190
44 | Cc1ccc(S(=O)(=O)Nc2ccc(C#N)cc2C(=O)Nc2cc3ccccc3s2)cc1 [HL-0071, N-(benzo[b]thiophen-2-yl)-5-cyano-2-((4-methylphenyl)sulfonamido)benzamide] | 43
